Among the data in patent US8859580B2 (Boehringer Ingelheim International GmbH, priority 2007, dated 2014) are IC50 values, retold here.

Each structure is given as a SMILES string.

This test deals with T1, 11β-HSD1 (Homo sapiens, UniProt P28845).
T1 construct: detecting cortisol generated from cortisterone by human liver microsomes; from tissue; host or cells: human liver microsomes
In words: In vitro inhibition of 11β-HSD1, HTRF detection of cortisol generated from cortisone by human liver microsomes. The class given is biochemical. Particulars: 11β-HSD IC50 (nM), 1 hour at 37° C., pH 6.0, NADPH 200 μM, cortisone 80 nM, inhibition relative to carbenoxolone signal. Put shortly: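 Cortisol formed from cortisone by human liver microsomes quantified by competitive HTRF immunoassay (XL665-cortisol, Eu-cryptate anti-cortisol antibody), 2 h detection, Em665/Em615 ratio converted via cortisol calibration curve. Percent inhibition relative to carbenoxolone signal; IC50 from curves.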
Background: TR-FRET usually uses a lanthanide donor and a delayed reading to cut background.

T1 sequence (P28845 whole entry): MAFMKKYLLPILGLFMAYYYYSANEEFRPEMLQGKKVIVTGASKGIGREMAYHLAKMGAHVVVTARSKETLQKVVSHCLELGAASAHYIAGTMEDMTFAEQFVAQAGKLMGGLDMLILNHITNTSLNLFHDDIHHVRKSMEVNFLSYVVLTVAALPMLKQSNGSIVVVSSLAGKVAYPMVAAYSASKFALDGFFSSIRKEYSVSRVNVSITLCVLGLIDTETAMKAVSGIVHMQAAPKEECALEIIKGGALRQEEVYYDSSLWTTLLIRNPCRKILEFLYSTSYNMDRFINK

For orientation: IC50 means the point on the concentration scale where inhibition reaches its midpoint. A higher IC50 goes with weaker potency. For the compound `CC1(C)C2CCN(C(=O)c3ccc4nc[nH]c4c3)C1Cc1c(O)cccc12` (stereo not shown) [Example 183, (3H-Benzoimidazol-5-yl)-(10-hydroxy-11,11-dimethyl-1,2,5,6-tetrahydro-4H-2,6-methano-benzo[d]azocin-3-yl)-methanone], half-maximal inhibition (IC50) was put at 155 nM.

Consider `CC1CN(Cc2ccc(C(=O)N3CC[C@@]4(C)c5cccc(O)c5C[C@@H]3C4(C)C)cc2)CC(C)O1` (stereo partly drawn) [Example 184, [4-(2,6-Dimethyl-morpholin-4-ylmethyl)-phenyl]-[(2R,6S)-10-hydroxy-6,11,11-trimethyl-1,2,5,6-tetrahydro-4H-2,6-methano-benzo[d]azocin-3-yl]-methanone], for which the IC50 turned out to be 1150 nM.

In the case of `CC1(O)CCN(Cc2ccc(C(=O)N3CC[C@@]4(C)c5cccc(O)c5C[C@@H]3C4(C)C)cc2)CC1` [Example 185, [4-(4-Hydroxy-4-methyl-piperidin-1-ylmethyl)-phenyl]-[(2R,6S)-10-hydroxy-6,11,11-trimethyl-1,2,5,6-tetrahydro-4H-2,6 methano-benzo[d]azocin-3-yl]-methanone], the IC50 was 5370 nM.

In turn, `CC1(C)[C@H]2Cc3c(O)cccc3[C@]1(C)CCN2C(=O)c1ccc(CN2CC(O)C2)cc1` [Example 187, [4-(3-Hydroxy-azetidin-1-ylmethyl)-phenyl]-[(2R,6S)-10-hydroxy-6,11,11-trimethyl-1,2,5,6-tetrahydro-4H-2,6-methano-benzo[d]azocin-3-yl]-methanone] had an IC50 of 1960 nM.

`CC1(C)[C@H]2Cc3c(O)cccc3[C@]1(C)CCN2C(=O)c1ccc(CN2CCC(O)C2)cc1` (stereo partly drawn) [Example 188, [4-(3-Hydroxy-pyrrolidin-1-ylmethyl)-phenyl]-[(2R,6S)-10-hydroxy-6,11,11-trimethyl-1,2,5,6-tetrahydro-4H-2,6-methano-benzo[d]azocin-3-yl]-methanone] yielded an IC50 of 2920 nM.

`COC1CCN(Cc2ccc(C(=O)N3CC[C@@]4(C)c5cccc(O)c5C[C@@H]3C4(C)C)cc2)CC1` [Example 189, [(2R,6S)-10-Hydroxy-6,11,11-trimethyl-1,2,5,6-tetrahydro-4H-2,6-methano-benzo[d]azocin-3-yl]-[4-(4-methoxy-piperidin-1-ylmethyl)-phenyl]-methanone]: half-maximal inhibition (IC50) was put at 2270 nM.

The compound `CC1(C)[C@H]2Cc3c(O)cccc3[C@]1(C)CCN2C(=O)c1ccc(CN2CCC(O)CC2)cc1` [Example 190, [4-(4-Hydroxy-piperidin-1-ylmethyl)-phenyl]-[(2R,6S)-10-hydroxy-6,11,11-trimethyl-1,2,5,6-tetrahydro-4H-2,6-methano-benzo[d]azocin-3-yl]-methanone] returned an IC50 of 1650 nM.

For `CC1(C)[C@H]2Cc3c(ccc4[nH]cnc34)[C@]1(C)CCN2C(=O)c1ccc2nc[nH]c2c1` [Example 191, (3H-Benzoimidazol-5-yl)-[(5R,9S)-4,5,6,7,8,9-hexahydro-2,10,12,12-trimethyl-5,9-methano-1H-imidazo[5,4-j][3]benzazocin-6-yl]-methanone], the IC50 is 571 nM.

`CC1(C)[C@H]2Cc3c(O)cccc3[C@]1(C)CCN2C(=O)c1n[nH]c2ccccc12` [Example 192, [(2R,6S)-10-Hydroxy-6,11,11-trimethyl-1,2,5,6-tetrahydro-4H-2,6-methano-benzo[d]azocin-3-yl]-(1H-indazol-3-yl)-methanone]: the IC50 came out at 434 nM.

As for `CC1(C)[C@H]2Cc3c(O)cccc3[C@]1(C)CCN2C(=O)c1c[nH]c2ccc(F)cc12` [Example 193, (5-Fluoro-1H-indol-3-yl)-[(2R,6S)-10-hydroxy-6,11,11-trimethyl-1,2,5,6-tetrahydro-4H-2,6-methano-benzo[d]azocin-3-yl]-methanone], the IC50 worked out at 360 nM.

As for `Cn1nc(C(=O)N2CC[C@@]3(C)c4cccc(O)c4C[C@@H]2C3(C)C)c2ccccc21` [Example 194, [(2R,6S)-10-Hydroxy-6,11,11-trimethyl-1,2,5,6-tetrahydro-4H-2,6-methano-benzo[d]azocin-3-yl]-(1-methyl-1H-indazol-3-yl)-methanone], half-maximal inhibition (IC50) required 642 nM.

In turn, `COc1cccc2[nH]cc(C(=O)N3CC[C@@]4(C)c5cccc(O)c5C[C@@H]3C4(C)C)c12` [Example 195, [(2R,6S)-10-Hydroxy-6,11,11-trimethyl-1,2,5,6-tetrahydro-4H-2,6-methano-benzo[d]azocin-3-yl]-(4-methoxy-1H-indol-3-yl)-methanone] came in with an IC50 of 2480 nM. This IC50 is about 3.9-fold higher than that of the compound before.

The compound `CC1(C)[C@H]2Cc3c(O)cccc3[C@]1(C)CCN2C(=O)c1c[nH]c2ccc(Cl)cc12` [Example 196, (5-Chloro-1H-indol-3-yl)-[(2R,6S)-10-hydroxy-6,11,11-trimethyl-1,2,5,6-tetrahydro-4H-2,6-methano-benzo[d]azocin-3-yl]-methanone] displayed an IC50 of 781 nM.

Regarding `Cc1[nH]c2ccccc2c1C(=O)N1CC[C@@]2(C)c3cccc(O)c3C[C@@H]1C2(C)C` [Example 197, [(2R,6S)-10-Hydroxy-6,11,11-trimethyl-1,2,5,6-tetrahydro-4H-2,6-methano-benzo[d]azocin-3-yl]-(2-methyl-1H-indol-3-yl)-methanone], 3830 nM corresponded to half-maximal inhibition (IC50).

For `CC1(C)[C@H]2Cc3c(O)cccc3[C@]1(C)CCN2C(=O)c1coc2ccccc12` [Example 198, Benzofuran-3-yl-[(2R,6S)-10-hydroxy-6,11,11-trimethyl-1,2,5,6-tetrahydro-4H-2,6-methano-benzo[d]azocin-3-yl]-methanone], the IC50 came to 435 nM. Against the preceding compound, the IC50 is about 8.8-fold lower.

In the case of `Cn1cc(C(=O)N2CC[C@@]3(C)c4cccc(O)c4C[C@@H]2C3(C)C)c2ccccc21` [Example 199, [(2R,6S)-10-Hydroxy-6,11,11-trimethyl-1,2,5,6-tetrahydro-4H-2,6-methano-benzo[d]azocin-3-yl]-(1-methyl-1H-indol-3-yl)-methanone], the IC50 was found to be 137 nM. This IC50 is about 3.2-fold lower than that of the compound before.

Consider `CN(C)S(=O)(=O)c1ccc2c(c1)[C@]1(C)CCN(C(=O)c3ccc4nc[nH]c4c3)[C@H](C2)C1(C)C` [Example 201, (2R,6S)-3-(3H-Benzoimidazole-5-carbonyl)-6,11,11-trimethyl-1,2,3,4,5,6-hexahydro-2,6-methano-benzo[d]azocine-8-sulfonic acid dimethylamide], for which the IC50 turned out to be 53 nM.

Turning to `CNS(=O)(=O)c1ccc2c(c1)[C@]1(C)CCN(C(=O)c3ccc4nc[nH]c4c3)[C@H](C2)C1(C)C` [Example 202, (2R,6S)-3-(3H-Benzoimidazole-5-carbonyl)-6,11,11-trimethyl-1,2,3,4,5,6-hexahydro-2,6-methano-benzo[d]azocine-8-sulfonic acid methylamide], the IC50 came to 66 nM.

`CC1(C)[C@H]2Cc3ccc(S(N)(=O)=O)cc3[C@]1(C)CCN2C(=O)c1ccc2nc[nH]c2c1` [Example 203, (2R,6S)-3-(3H-Benzoimidazole-5-carbonyl)-6,11,11-trimethyl-1,2,3,4,5,6-hexahydro-2,6-methano-benzo[d]azocine-8-sulfonic acid amide] registered an IC50 of 125 nM.

Compound `CC(=O)c1ccc2c(c1)[C@]1(C)CCN(C(=O)c3ccc4nc[nH]c4c3)[C@H](C2)C1(C)C` [Example 204, 1-[(2R,6S)-3-(3H-Benzoimidazole-5-carbonyl)-6,11,11-trimethyl-1,2,3,4,5,6-hexahydro-2,6-methano-benzo[d]azocin-8-yl]-ethanone] gave an IC50 of 27 nM. This IC50 lies about 4.6-fold lower than the previous one.

`CC(=O)c1ccc2c(c1)C[C@H]1N(C(=O)c3ccc4nc[nH]c4c3)CC[C@]2(C)C1(C)C` [Example 205, 1-[(2R,6S)-3-(3H-Benzoimidazole-5-carbonyl)-6,11,11-trimethyl-1,2,3,4,5,6-hexahydro-2,6-methano-benzo[d]azocin-9-ayl]-ethanone] returned an IC50 of 38 nM.

Compound `CC1(C)[C@H]2Cc3cc(C#N)ccc3[C@]1(C)CCN2C(=O)c1ccc2nc[nH]c2c1` [Example 206, (2R,6S)-3-(3H-Benzoimidazole-5-carbonyl)-6,11,11-trimethyl-1,2,3,4,5,6-hexahydro-2,6-methano-benzo[d]azocine-9-carbonitrile] gave an IC50 of 47 nM.

In turn, `CC1(C)[C@H]2Cc3c(O)cccc3[C@]1(C)CCN2C(=O)c1ccc(CN2CCOCC2=O)cc1` [Example 207, 4-[(2R,6S)-4-(10-Hydroxy-6,11,11-trimethyl 1,2,5,6-tetrahydro-4H-2,6-methano-benzo[d]azocine-3-carbonyl)-benzyl]-morpholin-3-one] came in with an IC50 of 224 nM.

`CN(C(=O)c1ccc(C(=O)N2CC[C@@]3(C)c4cccc(O)c4C[C@@H]2C3(C)C)cc1)c1ccccc1` [Example 208, 4-[(2R,6S)-10-Hydroxy-6,11,11-trimethyl-1,2,5,6-tetrahydro-4H-2,6-methano-benzo[d]azocine-3-carbonyl]-N-methyl-N-phenyl-benzamide] yielded an IC50 of 238 nM.

For the compound `CC(O)c1ccc2c(c1)C[C@H]1N(C(=O)c3ccc4nc[nH]c4c3)CC[C@]2(C)C1(C)C` (stereo partly drawn) [Example 209, (3H-Benzoimidazol-5-yl)-[(2R,6S)-9-(1-hydroxy-ethyl)-6,11,11-trimethyl-1,2,5,6-tetrahydro-4H-2,6-methano-benzo[d]azocin-3-yl]-methanone], the IC50 was 40 nM. This IC50 is about 6-fold lower than that of the compound before.

Turning to `Cc1cc2nc[nH]c2cc1C(=O)N1CC[C@@]2(C)c3cccc(O)c3C[C@@H]1C2(C)C` [Example 210, [(2R,6S)-10-Hydroxy-6,11,11-trimethyl-1,2,5,6-tetrahydro-4H-2,6-methano-benzo[d]azocin-3-yl]-(6-methyl-3H-benzoimidazol-5-yl)-methanone], the IC50 is 68 nM.

Compound `CC(O)c1ccc2c(c1)[C@]1(C)CCN(C(=O)c3ccc4nc[nH]c4c3)[C@H](C2)C1(C)C` (stereo partly drawn) [Example 211, (3H-Benzoimidazol-5-yl)-[(2R,6S)-8-(1-hydroxy-ethyl)-6,11,11-trimethyl-1,2,5,6-tetrahydro-4H-2,6-methano-benzo[d]azocin-3-yl]-methanone] registered an IC50 of 31 nM.

As for `COC(=O)C12CCN(C(=O)c3ccc4nc[nH]c4c3)C(Cc3ccc(O)cc31)C2` (stereo not shown) [Example 212, 3-(3H-Benzoimidazole-5-carbonyl)-8-hydroxy-2,3,4,5-tetrahydro-1H-2,6-methano-benzo[d]azocine-6-carboxylic acid methyl ester], the IC50 came out at 1940 nM. Compared with the last compound, the IC50 is about 63-fold higher.
